These results are taken from patent US20130203649A1, “INHIBITORS OF TLR SIGNALING BY TARGETING TIR DOMAIN INTERFACES” (UNIVERSITY OF MARYLAND, BALTIMORE, priority 2012, published 2013).

No end group written: not given here.

One experiment addresses T1, TLR4/TRAM (Mus musculus, UniProt Q9QUK6).
T1 construct: TLR4-Cer expression vector was described earlier (1); expressed in transfected cells; host or cells: HEK293T
T1 sequence (Q9QUK6 26-835): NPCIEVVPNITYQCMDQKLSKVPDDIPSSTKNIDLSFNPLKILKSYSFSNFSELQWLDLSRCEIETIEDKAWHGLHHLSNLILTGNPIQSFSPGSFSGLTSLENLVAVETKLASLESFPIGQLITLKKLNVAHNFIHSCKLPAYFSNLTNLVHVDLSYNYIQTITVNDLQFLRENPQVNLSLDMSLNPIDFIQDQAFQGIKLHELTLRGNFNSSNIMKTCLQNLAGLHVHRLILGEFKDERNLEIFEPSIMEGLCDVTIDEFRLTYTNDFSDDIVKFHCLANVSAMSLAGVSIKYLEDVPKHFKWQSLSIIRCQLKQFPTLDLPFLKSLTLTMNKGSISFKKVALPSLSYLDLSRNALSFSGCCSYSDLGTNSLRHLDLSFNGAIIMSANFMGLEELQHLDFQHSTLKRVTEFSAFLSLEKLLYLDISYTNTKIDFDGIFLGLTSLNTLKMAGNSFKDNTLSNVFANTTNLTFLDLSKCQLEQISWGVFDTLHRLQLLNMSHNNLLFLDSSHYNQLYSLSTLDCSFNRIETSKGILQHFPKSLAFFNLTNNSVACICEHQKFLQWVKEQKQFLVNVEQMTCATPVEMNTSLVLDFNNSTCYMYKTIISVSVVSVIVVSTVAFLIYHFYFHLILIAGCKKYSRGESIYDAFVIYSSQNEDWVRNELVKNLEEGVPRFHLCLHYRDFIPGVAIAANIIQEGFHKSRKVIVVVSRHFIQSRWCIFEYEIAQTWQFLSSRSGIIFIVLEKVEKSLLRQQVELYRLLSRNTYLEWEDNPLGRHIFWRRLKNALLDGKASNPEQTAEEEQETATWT
Description: TLR4/TRAM coimmunoprecipitation in transfected HEK293T cells. The experiment is classed as cell-based. Conditions: 20 μM peptide, 1 h. On the procedure: (§1) FIG. 9. TM4, TM6, and TR6 block adapter recruitment to TLR4. (A) A total of 6×10^5 HEK293T cells was transfected with 1 μg pcDNA3.1-mTLR4-Cer and pEF-BOS-mTRAM-HA. Twenty-four hours posttransfection, the cells were treated with 20 μM of each peptide for 1 h. Cell lysates were immunoprecipitated with anti-GFP Ab and blotted with anti-HA-HRP. (B) A total of 2×10^6 mouse peritoneal macrophages was pretreated with 20 μM of each peptide for 30 min prior to stimulation with 100 ng/ml LPS. Cell extracts were obtained 30 min after LPS treatment, immunoprecipitated with goat anti-TLR4 Ab, and blotted with rabbit anti-MyD88 or anti-TLR4 Ab. Data are representative of three independent experiments.
(§2) HEK293T cells were transfected with indicated plasmids using Superfect Transfection Reagent (Qiagen). […] Protein was quantified using Bio-Rad protein quantification kit. Equal amount of protein was loaded and analyzed by 10% SDS-PAGE and immunoblotting. The cell extracts containing equal amount of protein were incubated with 1 μg Ab for 2 h, followed by 4-h incubation with 25 μl protein G agarose beads (Roche); the beads were then washed four times with lysis buffer, boiled in […] sample loading buffer, and analyzed by immunoblotting. […]

Another experiment concerns TLR4/MyD88. Description: LPS-induced TLR4/MyD88 coimmunoprecipitation in mouse peritoneal macrophages. Type of experiment: cell-based. As to conditions: 20 μM peptide 30 min before LPS 100 ng/ml. On the procedure:
as §1, §2

In the case of RQIKIWFQNRRMKWKKPGFLRDPWCKYQML [TR6], the TLR4/TRAM coimmunoprecipitation entry on TLR4/TRAM is “inhibited TLR4/TRAM association, although less efficiently than TM6”. In addition, the “LPS-induced TLR4/MyD88 association” value with TLR4/MyD88 is “efficiently prevented”.
